Literature values as cited in US20070099863A1, “Compounds for the treatment of demyelinating and autoimmune diseases” (priority 2003, published 2007).
Structures can show the parent of a compound that is named as a salt.

Tests used:
P2X7 = biological target: T1, P2X7 (Homo sapiens, UniProt Q99572); conditions: P2X7 subtype; read-out: IC50 in relation to P2X7; cited from earlier work
T1 sequence (Q99572 1-595): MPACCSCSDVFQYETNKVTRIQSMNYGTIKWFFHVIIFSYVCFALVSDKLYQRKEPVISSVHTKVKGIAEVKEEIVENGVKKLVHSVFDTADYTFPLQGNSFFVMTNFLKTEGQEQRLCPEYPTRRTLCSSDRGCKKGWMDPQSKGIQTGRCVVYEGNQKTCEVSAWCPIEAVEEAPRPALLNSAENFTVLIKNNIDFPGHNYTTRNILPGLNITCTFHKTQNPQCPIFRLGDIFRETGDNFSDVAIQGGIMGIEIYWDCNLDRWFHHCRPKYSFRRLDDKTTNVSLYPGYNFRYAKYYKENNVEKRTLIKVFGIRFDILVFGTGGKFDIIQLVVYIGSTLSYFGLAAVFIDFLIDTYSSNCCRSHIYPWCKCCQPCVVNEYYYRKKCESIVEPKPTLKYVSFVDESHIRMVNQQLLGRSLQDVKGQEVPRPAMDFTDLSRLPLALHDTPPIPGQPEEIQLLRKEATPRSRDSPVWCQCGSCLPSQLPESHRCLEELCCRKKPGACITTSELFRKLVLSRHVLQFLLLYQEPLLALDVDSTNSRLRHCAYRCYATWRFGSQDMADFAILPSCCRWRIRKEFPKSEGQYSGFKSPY

P2X4 = biological target: T2, P2X4 (Homo sapiens, UniProt Q99571); conditions: P2X4 subtype; read-out: IC50 in relation to P2X4; cited from earlier work
T2 sequence (Q99571 1-388): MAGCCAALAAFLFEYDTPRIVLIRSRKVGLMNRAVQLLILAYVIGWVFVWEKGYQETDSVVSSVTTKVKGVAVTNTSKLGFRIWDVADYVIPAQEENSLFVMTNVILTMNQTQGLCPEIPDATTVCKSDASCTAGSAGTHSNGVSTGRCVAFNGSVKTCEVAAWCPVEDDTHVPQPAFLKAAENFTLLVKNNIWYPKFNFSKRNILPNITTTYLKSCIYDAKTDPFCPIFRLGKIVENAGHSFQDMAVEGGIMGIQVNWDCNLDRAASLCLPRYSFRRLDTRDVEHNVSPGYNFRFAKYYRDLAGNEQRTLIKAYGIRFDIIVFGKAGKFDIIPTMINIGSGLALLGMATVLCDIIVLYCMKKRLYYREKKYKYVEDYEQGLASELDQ

P2X5 = P2X5 (Homo sapiens, UniProt Q93086); conditions: P2X5 subtype; read-out: IC50 in relation to P2X5; cited from earlier work
P2X5, sequence (Q93086 whole entry, species assumed): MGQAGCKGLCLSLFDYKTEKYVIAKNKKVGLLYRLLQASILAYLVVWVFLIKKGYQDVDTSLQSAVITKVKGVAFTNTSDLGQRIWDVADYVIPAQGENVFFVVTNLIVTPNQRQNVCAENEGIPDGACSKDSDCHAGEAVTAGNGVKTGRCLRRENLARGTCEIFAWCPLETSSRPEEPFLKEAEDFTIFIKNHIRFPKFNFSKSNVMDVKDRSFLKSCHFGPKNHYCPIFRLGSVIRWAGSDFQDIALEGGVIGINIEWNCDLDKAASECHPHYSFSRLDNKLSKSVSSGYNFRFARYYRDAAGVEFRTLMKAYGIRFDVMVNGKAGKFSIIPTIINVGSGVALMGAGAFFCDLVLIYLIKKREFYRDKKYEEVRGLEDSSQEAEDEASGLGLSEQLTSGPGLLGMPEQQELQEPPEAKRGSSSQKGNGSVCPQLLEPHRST

Compound | IC50 (P2X7) [µM] | IC50 (P2X4) [µM] | IC50 (P2X5) [µM]
CCOc1ccc(Nc2ccc(/C(=C3C=C/C(=[N+](/CC)Cc4cccc(S(=O)(=O)[O-])c4)C=C/3C)c3ccc(N(CC)Cc4cccc(S(=O)(=O)O)c4)cc3C)cc2)cc1 [BBG, Coomassie brilliant blue G] | 0.01 | > 10 | 
Cc1ccc(C(=O)Nc2ccc(S(=O)(=O)O)c3cc(S(=O)(=O)O)cc(S(=O)(=O)O)c23)cc1NC(=O)c1cccc(NC(=O)Nc2cccc(C(=O)Nc3cc(C(=O)Nc4ccc(S(=O)(=O)O)c5cc(S(=O)(=O)O)cc(S(=O)(=O)O)c45)ccc3C)c2)c1 [Suramin, hexasodium salt of 8,8′-[carbonylbis[imino-3,1-phenylenecarbonylimino(4-methyl-3,1-phenylene)carbonylimino]]bisnaphthalene-1,3,5-trisulphonic acid] |  | 178 | 4
